The source of these data is patent US20220324835A1 (Nurix Therapeutics, Inc., priority 2018, published 2022).

Structures are written as SMILES. Where two headings read alike, the source gives them in different places.

For assay [1], the system named is T-cells. The assay can be described thus: In vivo activity: CD25 expression on CD4+ or CD8+ T-cells of mice stimulated with anti-CD3 antibody. Particulars: 2 μg anti-CD3 antibody, 24 hours. On the procedure:
A method of determining the pharmacodynamic profile of Cbl-b inhibitors was performed by dosing strains of mice with competent immune systems such as C57BL/6 or BALB/c with a Cbl-b inhibitor. The Cbl-b inhibitor was dissolved in a suitable formulation and administered by one of various routes such as intravenous (IV), intraperitoneal (IP), subcutaneous (SC), or oral (PO), at a suitable dose level and frequency (e.g. twice per day BID or thrice per day TID) as informed by prior pharmacokinetic and tolerability studies. Following administration of the Cbl-b inhibitor, T-cells and indirectly other immune cells (e.g. via cytokine production) were stimulated in vivo by administration of an anti-CD3 antibody or antigen-binding fragment thereof in PBS at defined amounts such as 2 μg or 10 μg per animal by routes such as IV or IP (See Hirsh et al., J. Immunol., 1989; Ferran, et al., Eur. J. Immunol., 1990). Additional study control arms included groups of mice treated with a vehicle formulation alone (i.e., formulation without the Cbl-b inhibitor and anti-CD3 antibody), a formulation containing the Cbl-b inhibitor alone, a formulation containing the anti-CD3 antibody alone, PBS alone, or combinations of these agents. The level of immune activation was then assessed by analysis of plasma cytokine levels and/or expression of activation markers on immune cells (e.g. T-cells). Blood or lymphoid organs (e.g. spleen) were collected at defined time points (e.g. 8 hours or 24 hours). Blood samples were processed to collect plasma for determination of cytokine levels using standard methods known in the art. Cytokines measured included IL-2, IFNγ, and TNFα. Additional blood samples and lymphoid tissues were processed for flow cytometric analysis of immune cells (e.g. T-cells) using standard methods to determine expression of cell type-specific markers and activation markers such as CD25 and/or CD69. Augmentation of immune stimulation by Cbl-b inhibitor administration was assessed by comparing the relative concentrations of cytokines in plasma, or the expression levels of activation markers on immune cells between appropriate groups (e.g. mice treated with Cbl-b inhibitor and 2 μg anti-CD3 antibody versus mice treated with vehicle and 2 μg anti-CD3 antibody).
Cbl-b inhibitors were tested to determine their ability to induce or enhance the level of cytokines (e.g. IL-2, IFNγ, and TNFα) in blood obtained from treated mice stimulated with an anti-CD3 antibody, which is indicative of modulation of the immune response. Cbl-b inhibitors were also tested to determine their ability to induce or enhance the expression of cell surface markers on T-cells (e.g. CD25 and/or CD69) isolated from treated mice stimulated with an anti-CD3 antibody, which is indicative of modulation of the immune response.
Readouts were reported as fold change over baseline. The fold change was calculated from the mean value of mice treated with Cbl-b inhibitor and 2 μg anti-CD3 antibody, with the baseline defined as the mean value of mice treated with vehicle and 2 μg anti-CD3 antibody. Increases in the percentage of cells with surface expression of CD25 on CD4+ T-cells or CD8+ T-cells greater than 1.5-fold over baseline at 24 hours were considered a positive response. Increases in the plasma concentration of IL-2, IFNγ, and TNFα greater than 1.5-fold over baseline at 8 hours post-stimulation were also considered a positive response (Table 8). Fold changes were ranked into bins according to their readouts as follows: A indicates >2.50, B indicates 2.01-2.50, C indicates 1.51-2.00, D indicates 1.00-1.50, and E indicates <1.00.

The test system of assay [2] is primary human NK cells. The assay can be described thus: NK cell activation assessed by cytokine secretion (coculture with K562 NucRed target cells). It counts as cell-based. On the procedure:
Peripheral blood mononuclear cells (PBMC) were obtained either: 1) by using Ficoll-Paque™ (GE Healthcare) for separation of peripheral blood hematopoietic cells from buffy coats of healthy human donors; or 2) directly from LeukoPak donations. […] The cells were cultured overnight with IL-2 (60 ng/mL) at 37° C. 5% CO2. Cbl-b inhibitors were added 1 hour prior to stimulation and incubated at 37° C. 5% CO2 at a specific concentration (e.g., 10 μM, 1 μM, or 0.1 μM) with a final DMSO concentration of <0.1%. NK cells were co-cultured with target cells that were engineered to have a red nucleus (K562 NucRed) measurable by flow cytometry. […] The cells were mixed at the indicated ratios (e.g., 5:1, 1:1, or 1:5) of NK (effector cells) to K562 NucRed (target cells) for 6 hours. Cell free supernatants were collected and analyzed for cytokine secretion (e.g. TNFα, IFNγ, or MIP1β) by ELISA or Luminex multiplex kits following the manufacturer's protocol. IFNγ secretion was assessed using an R&D Systems ELISA kit (Catalog #DY285), TNFα secretion was assessed using an R&D Systems ELISA kit (Catalog #DY210), and MIP1β secretion was assessed using an R&D Systems ELISA kit (Catalog #DY271).
Readouts were reported as fold change over baseline. Baseline for this study was the measurement obtained from primary human NK effector cells cocultured with K562 NucRed target cells in the absence of a Cbl-b inhibitor. For NK cells cocultured with K562 NucRed cells, changes greater than 2.0-fold over baseline for cytokine secretion were considered a positive response (Table 10a and 10b).

[3] abbreviates: K562, 1:1 E/T, read-out: IFNγ secretion.
Where [4] appears, read: K562, 1:1 E/T, read-out: MIP1β secretion.
[5] abbreviates: K562, 1:1 E/T, read-out: TNFα secretion.
Setting [6] is: K562, 5:1 E/T, read-out: IFNγ secretion.
The mark [7] stands for this setting: K562, 5:1 E/T, read-out: MIP1β secretion.
Setting [8] is: K562, 5:1 E/T, read-out: TNFα secretion.

In the case of `C[C@H](c1cc2c(c(C(F)(F)F)c1)CN(c1cccc(C3([C@H](F)c4nncn4C)COC3)c1)C2=O)N1CCC2(CC2)C1` (stereo in doubt) [Example 575, 6-((R)-1-(5-Azaspiro[2.4]heptan-5-yl)ethyl)-2-(3-(3-((S)-fluoro(4-methyl-4H-1,2,4-triazol-3-yl)methyl)oxetan-3-yl)phenyl)-4-(trifluoromethyl)isoindolin-1-one], the “CD4+ T-cell % CD25+” value in assay [1] (45 mpk PO BID) is given as “C (C indicates 1.51-2.00)”; in assay [1] (90 mpk PO BID) it was “A (A indicates >2.50)”; in assay [1] (180 mpk PO BID), “A (A indicates >2.50)”. In addition, the figures for the “CD8+ T-cell % CD25+” value in assay [1] (45 mpk PO BID), in assay [1] (90 mpk PO BID) and in assay [1] (180 mpk PO BID) were “D (D indicates 1.00-1.50)”, “C (C indicates 1.51-2.00)” and “C (C indicates 1.51-2.00)”, respectively.
Turning to `C[C@H](Cc1nncn1C)c1cccc(NC(=O)c2cc(C(=O)N3CC[C@H](O)C3)cc(C(F)(F)F)n2)c1` [Compound 220, 4-((S)-3-hydroxypyrrolidine-1-carbonyl)-N-(3-((R)-1-(4-methyl-4H-1,2,4-triazol-3-yl)propan-2-yl)phenyl)-6-(trifluoromethyl)picolinamide], the fold induction at 1 µM in assay [2] (setting [3]), in assay [2] (setting [4]), in assay [2] (setting [5]), in assay [2] (setting [6]), in assay [2] (setting [7]) and in assay [2] (setting [8]) was 1.01 to 2 in each case. The fold induction at 10 µM in assay [2] (setting [3]), in assay [2] (setting [4]), in assay [2] (setting [5]), in assay [2] (setting [6]), in assay [2] (setting [7]) and in assay [2] (setting [8]) was 2.01 to 5 throughout.
For `CN1CC2CCC(C1)N2c1cc2c(c(C(F)(F)F)c1)CN(c1cccc(C3(Cc4nncn4C)COC3)c1)C2=O` [Compound 386, 2-(3-(3-((4-Methyl-4H-1,2,4-triazol-3-yl)methyl)oxetan-3-yl)phenyl)-6-(3-methyl-3,8-diazabicyclo[3.2.1]octan-8-yl)-4-(trifluoromethyl)isoindolin-1-one], in assay [1] (135 mpk PO BID), the “CD4+ T-cell % CD25+” value is on record as “C (C indicates 1.51-2.00)” and the “CD8+ T-cell % CD25+” value is on record as “D (D indicates 1.00-1.50)”.
With `Cn1cnnc1CC1(c2cccc(N3Cc4c(cc(CN5CC[C@H](F)C5)cc4C(F)(F)F)C3=O)c2)COC1` [Compound 410, 6-{[(3S)-3-fluoropyrrolidin-1-yl]methyl}-2-(3-{3-[(4-methyl-4H-1,2,4-triazol-3-yl)methyl]oxetan-3-yl}phenyl)-4-(trifluoromethyl)-2,3-dihydro-1H-isoindol-1-one], the “CD4+ T-cell % CD25+” value in assay [1] (90 mpk PO BID), in assay [1] (135 mpk PO BID) and in assay [1] (180 mpk PO BID) was “D (D indicates 1.00-1.50)” throughout. Moreover, the “CD8+ T-cell % CD25+” value in assay [1] (90 mpk PO BID), in assay [1] (135 mpk PO BID) and in assay [1] (180 mpk PO BID) was “D (D indicates 1.00-1.50)” throughout.
For `Cn1cnnc1CC1(c2cccc(N3Cc4c(cc(CN5CC[C@@H](C#N)C5)cc4C(F)(F)F)C3=O)c2)COC1` [Compound 421, (R)-1-((2-(3-(3-((4-methyl-4H-1,2,4-triazol-3-yl)methyl)oxetan-3-yl)phenyl)-3-oxo-7-(trifluoromethyl)isoindolin-5-yl)methyl)pyrrolidine-3-carbonitrile], the “CD4+ T-cell % CD25+” value in assay [1] (90 mpk PO BID), in assay [1] (135 mpk PO BID) and in assay [1] (180 mpk PO BID) was “E (E indicates <1.00)” in each case. Further, the “CD8+ T-cell % CD25+” value in assay [1] (90 mpk PO BID), in assay [1] (135 mpk PO BID) and in assay [1] (180 mpk PO BID) was “E (E indicates <1.00)” each time.
Turning to `Cn1cnnc1CC1(c2cccc(N3Cc4c(cc(CN5C[C@H]6C[C@H]6C5)cc4C(F)(F)F)C3=O)c2)COC1` [Compound 429, 6-(((1R,5S)-3-azabicyclo[3.1.0]hexan-3-yl)methyl)-2-(3-(3-((4-methyl-4H-1,2,4-triazol-3-yl)methyl)oxetan-3-yl)phenyl)-4-(trifluoromethyl)isoindolin-1-one], in assay [1] (135 mpk PO BID), the “CD4+ T-cell % CD25+” value is on record as “D (D indicates 1.00-1.50)” and the “CD8+ T-cell % CD25+” value is “D (D indicates 1.00-1.50)”.
As for `Cn1cnnc1CC1(c2cccc(N3Cc4c(cc(CN5CCC[C@H](F)C5)cc4C(F)(F)F)C3=O)c2)COC1` [Compound 432, 6-{[(3S)-3-fluoropiperidin-1-yl]methyl}-2-(3-{3-[(4-methyl-4H-1,2,4-triazol-3-yl)methyl]oxetan-3-yl}phenyl)-4-(trifluoromethyl)-2,3-dihydro-1H-isoindol-1-one], in assay [1] (135 mpk PO BID), the “CD4+ T-cell % CD25+” value was “D (D indicates 1.00-1.50)” and the “CD8+ T-cell % CD25+” value was “D (D indicates 1.00-1.50)”.
Consider `Cn1cnnc1CC1(c2cccc(N3Cc4c(cc(CN5CC6(CC6)C5)cc4C(F)(F)F)C3=O)c2)COC1` [Compound 487, 6-{5-azaspiro[2.3]hexan-5-ylmethyl}-2-(3-{3-[(4-methyl-1,2,4-triazol-3-yl)methyl]oxetan-3-yl}phenyl)-4-(trifluoromethyl)-3H-isoindol-1-one], for which, in assay [1] (135 mpk PO BID), the “CD4+ T-cell % CD25+” value is “C (C indicates 1.51-2.00)” and the “CD8+ T-cell % CD25+” value was “D (D indicates 1.00-1.50)”.
The corresponding values for `Cn1cnnc1CC1(c2cccc(NC(=O)c3cc(CN4CC[C@H](F)C4)cc(C4CC4)n3)c2)COC1` [Compound 496, 6-cyclopropyl-4-{[(3S)-3-fluoropyrrolidin-1-yl]methyl}-N-(3-{3-[(4-methyl-1,2,4-triazol-3-yl)methyl]oxetan-3-yl}phenyl)pyridine-2-carboxamide] are “C (C indicates 1.51-2.00)” and “D (D indicates 1.00-1.50)”.
